Tests used:
[1] = biological target: T1, STE20-related kinase adapter protein alpha (Homo sapiens) (UniProt Q7RTN6); assay: Inhibition of human STLK5 in HL-60 cells lysate assessed as reduction of labeling of acyl-phosphate ATP probe at 100 nM; format: cell-free
T1 sequence (whole entry): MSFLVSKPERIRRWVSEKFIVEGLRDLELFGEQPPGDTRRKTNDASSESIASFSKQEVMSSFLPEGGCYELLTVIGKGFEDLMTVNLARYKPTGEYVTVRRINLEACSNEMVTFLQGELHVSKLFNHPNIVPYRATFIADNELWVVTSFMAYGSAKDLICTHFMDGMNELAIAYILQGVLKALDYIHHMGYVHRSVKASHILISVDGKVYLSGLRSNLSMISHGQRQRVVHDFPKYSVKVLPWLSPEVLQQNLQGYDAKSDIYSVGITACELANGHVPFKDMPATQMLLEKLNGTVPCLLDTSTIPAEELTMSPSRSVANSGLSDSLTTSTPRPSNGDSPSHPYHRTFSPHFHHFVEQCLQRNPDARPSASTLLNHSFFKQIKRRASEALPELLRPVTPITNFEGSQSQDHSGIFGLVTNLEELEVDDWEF

[2] = biological target: Tyrosine-protein kinase Fes/Fps (Homo sapiens) (UniProt P07332); assay: Inhibition of human FES in HL-60 cells lysate assessed as reduction of labeling of acyl-phosphate ATP probe at 100 nM; format: cell-free
[3] = biological target: Serine/threonine-protein kinase tousled-like 2 (Homo sapiens) (UniProt Q86UE8); assay: Inhibition of human TLK2 in HL-60 cells lysate assessed as reduction of labeling of acyl-phosphate ATP probe at 100 nM; format: cell-free
[4] = biological target: Cyclin-dependent kinase 13 (Homo sapiens) (UniProt Q14004); assay: Inhibition of human CHED in HL-60 cells lysate assessed as reduction of labeling of acyl-phosphate ATP probe at 100 nM; format: cell-free
[5] = tested on: HL-60; assay: Inhibition of human Wnk1/Wnk2/Wnk3 in HL-60 cells lysate assessed as reduction of labeling of acyl-phosphate ATP probe at 100 nM
[6] = biological target: Mitogen-activated protein kinase kinase kinase kinase 4 (Homo sapiens) (UniProt O95819); assay: Inhibition of human ZC1/HGK in HL-60 cells lysate assessed as reduction of labeling of acyl-phosphate ATP probe at 100 nM; format: cell-free
[7] = biological target: Cyclin-dependent kinase 1 (Homo sapiens) (UniProt P06493); assay: Inhibition of human CDC2 in HL-60 cells lysate assessed as reduction of labeling of acyl-phosphate ATP probe at 100 nM; format: cell-free
[8] = biological target: Tyrosine-protein kinase CSK (Homo sapiens) (UniProt P41240); assay: Inhibition of human CSK in HL-60 cells lysate assessed as reduction of labeling of acyl-phosphate ATP probe at 100 nM; format: cell-free
[9] = biological target: Mitogen-activated protein kinase 14 (Homo sapiens) (UniProt Q16539); assay: Inhibition of human P38alpha in HL-60 cells lysate assessed as reduction of labeling of acyl-phosphate ATP probe at 100 nM; format: cell-free
[10] = biological target: Serine/threonine-protein kinase/endoribonuclease IRE1 (Homo sapiens) (UniProt O75460); assay: Inhibition of human IRE1 in HL-60 cells lysate assessed as reduction of labeling of acyl-phosphate ATP probe at 100 nM; format: cell-free
[11] = biological target: Tyrosine-protein kinase SYK (Homo sapiens) (UniProt P43405); assay: Inhibition of human SYK in HL-60 cells lysate assessed as reduction of labeling of acyl-phosphate ATP probe at 100 nM; format: cell-free
[12] = biological target: Glycogen synthase kinase-3 beta (Homo sapiens, UniProt P49841); assay: Inhibition of human GSK3-beta in HL-60 cells lysate assessed as reduction of labelling of acyl-phosphate ATP probe at 100 nM; format: cell-free
[13] = biological target: T2, Phosphatidylinositol 5-phosphate 4-kinase type-2 gamma (Homo sapiens) (UniProt Q8TBX8); assay: Inhibition of human PIP4K2C in HL-60 cells lysate assessed as reduction of labeling of acyl-phosphate ATP probe at 100 nM; format: cell-free
T2 sequence (whole entry): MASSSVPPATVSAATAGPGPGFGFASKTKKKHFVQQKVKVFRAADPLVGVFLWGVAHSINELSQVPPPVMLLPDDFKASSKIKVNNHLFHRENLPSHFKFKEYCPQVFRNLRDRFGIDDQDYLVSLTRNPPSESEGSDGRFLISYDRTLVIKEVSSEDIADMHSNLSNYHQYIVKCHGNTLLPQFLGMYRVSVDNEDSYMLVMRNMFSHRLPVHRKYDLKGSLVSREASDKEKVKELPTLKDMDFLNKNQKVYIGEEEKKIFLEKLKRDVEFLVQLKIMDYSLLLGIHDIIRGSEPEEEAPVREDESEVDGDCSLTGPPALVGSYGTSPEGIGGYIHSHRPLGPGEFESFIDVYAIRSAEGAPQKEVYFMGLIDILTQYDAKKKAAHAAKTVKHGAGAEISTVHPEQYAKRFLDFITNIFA

[14] = biological target: T3, Mixed lineage kinase domain-like protein (Homo sapiens) (UniProt Q8NB16); assay: Inhibition of human MLKL in HL-60 cells lysate assessed as reduction of labeling of acyl-phosphate ATP probe at 100 nM; format: cell-free
T3 sequence (whole entry): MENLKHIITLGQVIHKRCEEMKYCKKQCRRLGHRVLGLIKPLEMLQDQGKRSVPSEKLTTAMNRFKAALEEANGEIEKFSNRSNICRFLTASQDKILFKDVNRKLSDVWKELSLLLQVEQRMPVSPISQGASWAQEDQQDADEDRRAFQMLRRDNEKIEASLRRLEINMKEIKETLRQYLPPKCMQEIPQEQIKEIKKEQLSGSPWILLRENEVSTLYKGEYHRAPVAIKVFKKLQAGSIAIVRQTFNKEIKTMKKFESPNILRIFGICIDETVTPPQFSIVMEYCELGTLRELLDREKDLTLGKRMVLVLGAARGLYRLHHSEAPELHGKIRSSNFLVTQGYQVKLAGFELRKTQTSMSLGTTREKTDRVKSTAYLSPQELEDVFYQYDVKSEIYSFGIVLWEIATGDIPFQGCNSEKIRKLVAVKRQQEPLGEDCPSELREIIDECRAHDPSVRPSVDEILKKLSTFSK

[15] = biological target: Interleukin-1 receptor-associated kinase 1 (Homo sapiens) (UniProt P51617); assay: Inhibition of human IRAK1 in HL-60 cells lysate assessed as reduction of labeling of acyl-phosphate ATP probe at 100 nM; format: cell-free
Sequence of Interleukin-1 receptor-associated kinase 1 (Homo sapiens) (P51617 whole entry, looked up): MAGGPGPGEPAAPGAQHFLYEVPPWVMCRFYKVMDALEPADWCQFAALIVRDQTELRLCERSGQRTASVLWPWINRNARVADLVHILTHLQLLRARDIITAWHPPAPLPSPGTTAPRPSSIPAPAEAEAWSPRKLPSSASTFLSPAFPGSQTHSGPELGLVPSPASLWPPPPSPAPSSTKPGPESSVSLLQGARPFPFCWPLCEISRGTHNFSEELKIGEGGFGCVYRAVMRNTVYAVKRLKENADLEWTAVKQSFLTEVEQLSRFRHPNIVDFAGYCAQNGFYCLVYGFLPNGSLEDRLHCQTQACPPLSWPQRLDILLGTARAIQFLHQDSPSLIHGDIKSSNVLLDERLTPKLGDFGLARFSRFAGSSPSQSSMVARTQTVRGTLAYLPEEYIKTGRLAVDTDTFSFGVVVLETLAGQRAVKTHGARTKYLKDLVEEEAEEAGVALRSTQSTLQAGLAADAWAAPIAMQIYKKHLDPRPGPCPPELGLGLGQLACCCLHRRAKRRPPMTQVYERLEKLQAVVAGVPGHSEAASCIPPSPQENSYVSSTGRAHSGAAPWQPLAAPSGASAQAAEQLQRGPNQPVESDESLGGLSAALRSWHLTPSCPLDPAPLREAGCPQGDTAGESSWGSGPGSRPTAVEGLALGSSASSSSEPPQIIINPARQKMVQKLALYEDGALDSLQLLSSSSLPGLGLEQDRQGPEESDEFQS

Sequence of Serine/threonine-protein kinase/endoribonuclease IRE1 (Homo sapiens) (O75460 19-977 limits assumed): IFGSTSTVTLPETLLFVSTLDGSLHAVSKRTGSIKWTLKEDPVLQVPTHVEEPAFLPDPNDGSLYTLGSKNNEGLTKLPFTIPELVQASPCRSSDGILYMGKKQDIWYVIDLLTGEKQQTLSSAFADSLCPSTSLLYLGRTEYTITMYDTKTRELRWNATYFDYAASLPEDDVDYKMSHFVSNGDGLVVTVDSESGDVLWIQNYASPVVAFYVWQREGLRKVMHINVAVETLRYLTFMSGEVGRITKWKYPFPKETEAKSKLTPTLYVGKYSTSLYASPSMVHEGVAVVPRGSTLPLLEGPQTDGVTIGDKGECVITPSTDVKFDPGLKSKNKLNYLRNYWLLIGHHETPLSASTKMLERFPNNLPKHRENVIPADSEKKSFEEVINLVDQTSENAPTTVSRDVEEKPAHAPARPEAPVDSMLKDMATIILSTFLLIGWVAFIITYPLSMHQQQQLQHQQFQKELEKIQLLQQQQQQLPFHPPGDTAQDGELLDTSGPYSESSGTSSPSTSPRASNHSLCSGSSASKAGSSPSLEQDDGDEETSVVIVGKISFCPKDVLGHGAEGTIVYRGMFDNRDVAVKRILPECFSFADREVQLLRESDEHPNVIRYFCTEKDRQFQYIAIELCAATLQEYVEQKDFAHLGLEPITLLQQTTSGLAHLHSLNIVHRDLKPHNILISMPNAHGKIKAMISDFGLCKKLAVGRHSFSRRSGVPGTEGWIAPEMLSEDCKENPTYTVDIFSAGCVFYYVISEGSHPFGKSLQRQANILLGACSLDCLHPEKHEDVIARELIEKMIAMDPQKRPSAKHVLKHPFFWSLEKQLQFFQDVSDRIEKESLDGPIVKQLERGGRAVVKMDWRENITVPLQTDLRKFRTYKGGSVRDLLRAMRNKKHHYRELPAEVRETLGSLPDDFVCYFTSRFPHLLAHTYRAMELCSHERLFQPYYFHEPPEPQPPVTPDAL
Sequence of Tyrosine-protein kinase CSK (Homo sapiens) (P41240 2-450 limits assumed): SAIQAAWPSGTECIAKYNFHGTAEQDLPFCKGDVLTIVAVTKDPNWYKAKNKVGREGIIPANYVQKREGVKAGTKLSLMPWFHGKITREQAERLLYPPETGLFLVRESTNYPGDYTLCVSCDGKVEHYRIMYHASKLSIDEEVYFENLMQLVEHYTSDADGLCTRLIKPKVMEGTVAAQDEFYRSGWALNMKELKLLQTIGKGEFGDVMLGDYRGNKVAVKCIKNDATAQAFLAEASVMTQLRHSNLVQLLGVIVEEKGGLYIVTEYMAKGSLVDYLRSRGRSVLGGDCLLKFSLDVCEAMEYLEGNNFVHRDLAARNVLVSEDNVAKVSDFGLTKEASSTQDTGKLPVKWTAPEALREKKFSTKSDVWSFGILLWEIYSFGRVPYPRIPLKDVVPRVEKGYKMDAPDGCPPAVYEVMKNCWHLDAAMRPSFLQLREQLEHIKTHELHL
Sequence of Glycogen synthase kinase-3 beta (P49841 whole entry, looked up): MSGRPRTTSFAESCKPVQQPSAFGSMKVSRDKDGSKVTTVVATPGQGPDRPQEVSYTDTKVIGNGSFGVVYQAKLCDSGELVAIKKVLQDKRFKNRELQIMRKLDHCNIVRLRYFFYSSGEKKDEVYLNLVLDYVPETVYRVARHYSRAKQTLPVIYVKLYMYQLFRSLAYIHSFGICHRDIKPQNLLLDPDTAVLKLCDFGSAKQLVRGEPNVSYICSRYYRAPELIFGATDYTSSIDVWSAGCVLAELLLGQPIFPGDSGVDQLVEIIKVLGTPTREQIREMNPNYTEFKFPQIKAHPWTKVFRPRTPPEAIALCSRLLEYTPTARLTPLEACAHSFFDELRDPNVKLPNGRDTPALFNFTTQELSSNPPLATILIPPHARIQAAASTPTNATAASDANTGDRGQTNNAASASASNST
Sequence of Serine/threonine-protein kinase tousled-like 2 (Homo sapiens) (Q86UE8 whole entry, looked up): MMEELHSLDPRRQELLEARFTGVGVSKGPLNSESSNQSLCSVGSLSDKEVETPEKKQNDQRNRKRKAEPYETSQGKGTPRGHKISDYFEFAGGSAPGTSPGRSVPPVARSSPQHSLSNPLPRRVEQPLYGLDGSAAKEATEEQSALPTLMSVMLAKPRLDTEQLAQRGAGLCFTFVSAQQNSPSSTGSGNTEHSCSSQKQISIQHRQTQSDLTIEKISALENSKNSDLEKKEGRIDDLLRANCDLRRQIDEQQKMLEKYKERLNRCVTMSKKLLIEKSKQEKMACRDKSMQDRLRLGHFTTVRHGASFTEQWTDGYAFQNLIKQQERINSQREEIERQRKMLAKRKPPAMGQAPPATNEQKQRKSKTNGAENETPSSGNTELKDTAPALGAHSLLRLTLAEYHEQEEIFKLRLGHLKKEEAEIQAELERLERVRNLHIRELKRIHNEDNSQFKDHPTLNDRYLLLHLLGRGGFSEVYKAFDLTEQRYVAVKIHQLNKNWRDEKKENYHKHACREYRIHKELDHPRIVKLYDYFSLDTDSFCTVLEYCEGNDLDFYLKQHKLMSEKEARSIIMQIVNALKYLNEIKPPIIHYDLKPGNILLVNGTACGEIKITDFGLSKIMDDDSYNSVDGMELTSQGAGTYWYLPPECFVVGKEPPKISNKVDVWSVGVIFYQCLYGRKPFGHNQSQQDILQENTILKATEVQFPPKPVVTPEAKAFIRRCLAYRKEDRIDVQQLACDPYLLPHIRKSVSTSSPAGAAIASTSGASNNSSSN
Sequence of Cyclin-dependent kinase 13 (Homo sapiens) (Q14004 whole entry, looked up): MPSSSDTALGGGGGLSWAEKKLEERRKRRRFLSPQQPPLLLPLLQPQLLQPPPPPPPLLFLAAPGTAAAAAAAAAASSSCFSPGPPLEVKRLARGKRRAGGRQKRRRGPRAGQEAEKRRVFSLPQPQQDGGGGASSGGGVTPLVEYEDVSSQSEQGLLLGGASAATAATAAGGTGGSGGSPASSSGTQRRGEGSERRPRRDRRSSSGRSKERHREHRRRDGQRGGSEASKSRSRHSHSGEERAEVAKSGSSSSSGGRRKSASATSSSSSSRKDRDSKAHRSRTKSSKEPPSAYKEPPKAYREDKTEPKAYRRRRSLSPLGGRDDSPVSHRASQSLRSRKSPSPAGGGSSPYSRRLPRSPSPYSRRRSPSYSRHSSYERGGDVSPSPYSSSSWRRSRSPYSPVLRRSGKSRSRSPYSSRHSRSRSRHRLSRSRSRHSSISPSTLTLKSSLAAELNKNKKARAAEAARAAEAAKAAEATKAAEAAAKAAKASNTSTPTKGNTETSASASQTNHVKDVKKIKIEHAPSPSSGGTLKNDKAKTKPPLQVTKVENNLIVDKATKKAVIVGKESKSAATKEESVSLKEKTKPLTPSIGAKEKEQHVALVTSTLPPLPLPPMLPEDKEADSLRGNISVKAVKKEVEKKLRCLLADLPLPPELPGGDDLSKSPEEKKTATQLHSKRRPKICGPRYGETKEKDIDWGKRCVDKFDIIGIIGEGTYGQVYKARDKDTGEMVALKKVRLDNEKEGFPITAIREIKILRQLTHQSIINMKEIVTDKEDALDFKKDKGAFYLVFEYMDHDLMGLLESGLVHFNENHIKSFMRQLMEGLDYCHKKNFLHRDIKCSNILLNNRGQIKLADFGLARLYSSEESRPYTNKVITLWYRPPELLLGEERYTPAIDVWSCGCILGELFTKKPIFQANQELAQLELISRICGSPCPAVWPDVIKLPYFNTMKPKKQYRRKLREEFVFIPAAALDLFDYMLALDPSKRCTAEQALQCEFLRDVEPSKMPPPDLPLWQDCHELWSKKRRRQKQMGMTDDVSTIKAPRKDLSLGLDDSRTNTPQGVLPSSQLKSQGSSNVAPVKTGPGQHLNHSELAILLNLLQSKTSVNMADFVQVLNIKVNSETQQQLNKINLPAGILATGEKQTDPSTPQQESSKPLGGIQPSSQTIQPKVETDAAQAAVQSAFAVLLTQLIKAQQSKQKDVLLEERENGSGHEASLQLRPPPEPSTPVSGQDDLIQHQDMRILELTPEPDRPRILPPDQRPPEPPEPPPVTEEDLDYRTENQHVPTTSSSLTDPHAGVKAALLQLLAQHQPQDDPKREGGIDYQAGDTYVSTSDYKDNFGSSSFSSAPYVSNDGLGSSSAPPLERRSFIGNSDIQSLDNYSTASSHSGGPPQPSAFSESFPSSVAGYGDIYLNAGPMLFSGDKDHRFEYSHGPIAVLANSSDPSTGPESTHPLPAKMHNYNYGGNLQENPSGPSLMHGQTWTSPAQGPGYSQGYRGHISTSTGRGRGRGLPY

Row | inhibition [1] | inhibition [2] | inhibition [3] | inhibition [4] | inhibition [6] | inhibition [7] | inhibition [8] | inhibition [9] | inhibition [10] | inhibition [11] | inhibition [12] | inhibition [13] | inhibition [14] | inhibition [15] | SMILES | inhibition at 0.1 µM [5]
1 | < 35% | < 35% | < 35% | < 35% | < 35% | < 35% | < 35% | < 35% | < 35% | < 35% | > 99.5% | < 35% | < 35% | < 35% | C[C@H]1COc2c(NCCCc3ccccn3)c(F)c(N)c3c(=O)c(C#N)cn1c23 | < 35%
2 | < 35% | < 35% | < 35% | < 35% | < 35% | < 35% | < 35% | < 35% | < 35% | < 35% | 87.8% | < 35% | < 35% | < 35% | C[C@H]1COc2c(NCCCn3cccn3)c(F)c(N)c3c(=O)c(C(=O)O)cn1c23 | < 35%
3 | < 35% | < 35% | < 35% | < 35% | < 35% | < 35% | < 35% | < 35% | < 35% | < 35% | 82.9% | < 35% | < 35% | < 35% | C[C@H]1COc2c(NCCCc3ccccn3)c(F)c(N)c3c(=O)c(C(=O)O)cn1c23 | < 35%
4 | < 35% | < 35% | < 35% | < 35% | < 35% | < 35% | < 35% | < 35% | < 35% | < 35% | 99.2% | < 35% | < 35% | < 35% | C[C@H]1COc2c(NCCCn3cccn3)c(F)c(N)c3c(=O)c(C#N)cn1c23 | < 35%

From ChEMBL document CHEMBL1938230, “6-Position optimization of tricyclic 4-quinolone-based inhibitors of glycogen synthase kinase-3β: discovery of nitrile derivatives with picomolar potency” (Bioorg Med Chem Lett, 2012)
